Laboratory results taken from patent publication US11291684B2, “Treatment of glaucoma” (TX MEDIC AB, priority 2017, dated 2022).

Experiments:
[1] = Body weight and activity of rats in glaucoma model; format: in vivo, Sprague Dawley rats; conditions: rat; day 28; treated animals gaining less weight
From the text: Measured End-Points • IOP twice weekly throughout study from day 0 to day 28; • Immunohistochemistry for counting RGC that are immunoreactive for brain-specific homeobox/POU domain protein 3A (Brn3a) at day 28 (RGC survival); • Immunohistochemistry for laminin and fibronectin to evaluate scarring in the trabecular meshwork at day 28 in Groups 1 and 2; • Anterior segment and OCT imaging at day 28 to examine the angle and the thickness of the retinal nerve fiber layer comprising RGC axons; and • Body weight at day 28.

laser-induced CNV = test: Isolectin B4 and collagen IV staining of RPE/choroidal/sclera wholemounts in laser-induced CNV model; format: in vivo, C57BL/6J mice
Procedure: Mice were anaesthetized with an intraperitoneal injection of 75 mg/kg ketamine and 7.5 mg/kg xylazine. The pupils were dilated with 1% atropine and 2.5% phenylephrine (Bausch & Lomb). To induce CNV, the rupture of Bruch's membrane-choroid was achieved by laser photocoagulation using the HGM Elite 532 Green Laser (Litechnica Ltd, Middesex, UK) with the spot size of 100 μm, 250 mW power and 100 msec duration. The laser spots were placed between retinal vessels and 2 to 3 disc-diameter away from the optic disc. The formation of a bubble at the site of laser application indicates the successful rupture of Bruch's membrane. Only laser burns in which a bubble was produced were included in this study. […] Three laser burns were applied to each retina.
Immediately after CNV induction, all mice were injected subcutaneously with 500 μl of dextran sulfate or saline. The injection was repeated once daily for 9 days post laser-CNV induction.
On day 10 post-CNV induction, all mice were sacrificed and eyes were carefully removed. All eyes were fixed in 2% paraformaldehyde/PBS (Sigma-Aldrich, Dorset, UK) for 2 h at room temperature and then washed and stored in PBS at 4° C. RPE-choroid-sclera wholemounts were prepared using the protocol described. Briefly, the anterior segment of the eye, including the cornea, ciliary body, iris and the lens were removed. Five vertical cuts were made to the eye cup, and the retinal tissue was then carefully removed. The extra ocular tissues, including conjunctiva and ocular muscles were carefully removed from the eye-cup (containing RPE/choroid/sclera). The RPE/choroidal/sclera wholemounts were further processed for Griffonia simplicifolia lectin 1-isolectin B4 and collagen IV immunostaining.
CNV was detected using the well-established isolectin B4 and collagen IV labelling technique. Isolectin B4 labels both infiltrating macrophages and vascular endothelial cells. Collagen IV labels the basal lamina of blood vessels. Both markers have been used widely to detect CNV.
RPE/choroidal/sclera wholemounts were permeablized with 0.5% Triton X-100/PBS for 1 h at room temperature. The samples were then blocked with 10% BSA in 0.5% Triton X-100/PBS for 1 h and incubated with biotinylated Griffonia simplicifolia lectin 1-isolectin B4 (GSL Isolectin B4, 1:50, Vector Laboratories Ltd, UK) and collagen IV (1:50, BIO-RAD, UK) overnight at 4° C. After thorough washing in PBS (10 minutes×3), samples were incubated with streptavidin-fluorescein isothiocyanate (FITC) (1:100, Vector laboratories, UK) and goat anti rabbit AF594 (1:100, Invitrogen, UK) for two hours at room temperature. Samples were flat-mounted on glass slides with Vectashield Mounting Medium (Vector Laboratories Ltd, UK) and observed by fluorescent microscopy.
Lecia fluorescent microscope was used to acquire images from above prepared RPE-choroidal/sclera wholemount samples. A 10× objective lens was used to allow capturing the whole area of a CNV. The imaging software ImageJ was used to analyze the images. To measure the size of CNV, the border of CNV was outlined manually and the size was automatically calculated using Image J software.
All data (the size of CNV in each group) were expressed as mean±SEM. Student t test was used to compare the difference between the dextran sulfate group and the saline control group.
24 C57BL/6J mice (10˜12 weeks old) were used in this study. […]

glaucomatous eyes = test: Intraocular pressure in TGF-β-induced glaucoma model (rebound tonometer); format: in vivo, Sprague Dawley rats; conditions: rat, 15 mg/kg daily s.c. from day 14
From the text: Raised IOP was induced by twice weekly intracameral injections of the inflammatory cytokine TGF-β over the entire time period of 28 days. This induced scarring of the trabecular meshwork (TM) drainage portals by day 14 with associated raised IOP. Daily subcutaneous dextran sulfate/saline treatments commenced at day 14.
Glaucoma was induced in adult male Sprague Dawley rats by repeat twice weekly intracameral (IC) injections of transforming growth factor-β (TGF-β) to increase intraocular pressure (IOP). Sustained increases in IOP (after two weeks) leads to death of retinal ganglion cells (30-40%). Dextran sulfate (Tikomed AB, Sweden, WO 2016/076780) was administered at 15 mg/kg by daily subcutaneous injection from […] to assess RGC protection compared to controls.
Group 1 n=12 rats; 24 eyes IOP+IC TGF-β (twice weekly for 28 days) between day 0 and day 28+ daily subcutaneous administration of dextran sulfate from day 14 to day 28.
Sixteen 8 to 10 week-old male 175-200 g Sprague Dawley rats (Charles River, Kent, UK), housed with free access to food and water under a 12 h dark/light cycle, were used for these experiments. Surgery was performed at the Biomedical Services Unit at the University of Birmingham in accordance with the Home Office guidelines set out in the 1986 Animal Act (UK) and the ARVO Statement for the Use of Animals in Ophthalmic and Vision Research. […] The post-operative welfare of all rats was monitored closely. […]
Using an iCare Tonolab rebound tonometer (Icare, Helsinki, Finland), IOP was recorded bi-weekly between 9-11 am for the duration of each experiment to avoid confounding the readings with circadian variability. Immediately after induction of anesthesia with 5% isoflurane, six rebound measurements were taken with the tonometer from the central cornea on each measurement occasion to give an overall average IOP measurement (mmHg) and all graphical data points represent the mean±SEM of 3 readings (of 6 rebounds each) taken sequentially to ensure accurate measurements.

[2] = mouse laser-CNV, day 10, 0.6 mg/ml, 500 μl s.c. once daily, mean±SEM

Substance: dextran sulfate
- body weight difference vs saline treated animals [1]: small but non-significant difference
- effects on the laser-induced CNV (laser-induced CNV; dose of 0.6 mg/ml per day): neither anti-angiogenic nor pro-angiogenic effects
- difference vs saline control in lectin B4+ lesions (laser-induced CNV; mouse laser-CNV, day 10): no statistical difference
- difference vs vehicle (saline) in collagen IV new blood vessel area (laser-induced CNV; mouse laser-CNV, day 10): no statistical significant difference
- average isolectin B4 positive area (laser-induced CNV; [2]): 43972±2302 μm^2
- means of area of new blood vessels (collagen IV) (laser-induced CNV; [2]): 54681±2378 μm^2
- IOP compared to controls (glaucomatous eyes; IC TGF-β twice weekly, day 24, vs saline): significantly lower (P<0.001) and normalized
- IOP compared to control group (glaucomatous eyes; IC TGF-β twice weekly, day 28 (end of experiment), vs saline): remained significantly lower
- time of treatment after which elevated IOP started to reduce (glaucomatous eyes; IC TGF-β): 7 days
